Results published in article PMC11587510, “Aromatic Amino Acid Hydroxylases as Off-Targets of Histone Deacetylase Inhibitors” (ACS Chemical Neuroscience, 2024).
“And” between values parts separate entries of the source, which are not always exact repeats. Identical values can stand only once. Like-named read-outs stand apart in the source and are kept apart here. Blank lines part the entries; values can stand above or below the compound they belong to.

Experiments:
dopamine transporter = system: dopamine transporter; set-up: method as in PMID 21785940; settings: neuroblastoma cells; cited from earlier work
serotonin transporter = system: serotonin transporter; set-up: method as in PMID 21785940; settings: neuroblastoma cells; cited from earlier work
HDAC 1 = settings: human recombinant HDAC, cited from earlier work
HDAC 8 = settings: human recombinant HDAC, cited from earlier work
TPH1 = target: T1, TPH1 (Homo sapiens, UniProt P17752); assay: Differential scanning fluorimetry (DSF) thermal stability assay; type: binding; settings: DSF, 50 μM compound
T1 construct: doubly truncated human TPH1 (ΔNH102-ΔCOOH402); made in house; host or cells: E. coli BL21(DE3)
T1 sequence (P17752 102-402): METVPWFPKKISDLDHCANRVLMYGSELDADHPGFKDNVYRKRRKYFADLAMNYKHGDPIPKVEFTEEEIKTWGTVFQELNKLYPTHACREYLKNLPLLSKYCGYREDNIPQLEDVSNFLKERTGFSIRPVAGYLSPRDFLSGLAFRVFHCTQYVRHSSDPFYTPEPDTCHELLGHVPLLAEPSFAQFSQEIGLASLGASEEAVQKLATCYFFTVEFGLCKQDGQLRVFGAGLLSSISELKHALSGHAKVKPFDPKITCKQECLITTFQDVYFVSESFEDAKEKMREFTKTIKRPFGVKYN
Description: A fluorescence-based thermal stability assay (differential scanning fluorimetry, DSF) was used for testing the effects of HDIs on the thermal stability of TPH1.
For initial high throughput screening (HTS), compounds were prepared at a concentration of 10 mM (in some cases, 5 mM) in 100% DMSO. Initial HTS screening was performed on TPH1 with and without compounds using a LightCycler 480 Real-Time PCR System (Roche Applied Science). TPH1 was diluted to 0.075 mg/mL in 50 mM Tris pH 8.0, 200 mM NaCl, 0.5 mM TCEP, and 5% glycerol with 5x SYPRO Orange. Compounds were added to a final concentration of 50 μM. Controls with 0.5% DMSO were performed on each 384-well microplate. Unfolding curves were recorded from 20 to 95 °C at a scan rate of 2 °C/min and monitored at excitation = 465 nm and emission = 610 nm. Selected hits were validated further by serial dilution from 250 μM to 122 nM, keeping the DMSO concentration constant at 2%.
DSF data were analyzed using HTSDSF Explorer.[55] Melting temperature (Tm) was calculated from the maximum value of the first derivative of the unfolding curve. ΔTm (Tm with compound–averaged Tm in DMSO controls) was plotted for all validated curves and a threshold of 2 °C was set (typically, cutoff at ΔTm = 3-fold the SD of the Tm of the DMSO control).
Preliminary binding constants (KD) were calculated by fitting data to the equation [drawing 1] where ΔH0 is the enthalpy of the unfolding of the protein in the presence of ligand ([L]), and R is the gas constant.

[1] = system: AAAHs (PAH, TH, TPH1, TPH2); assay: Enzyme activity assays, statement over all four AAAHs; type: biochemical, human
Description: (§1) The activity of purified PAH, TH, TPH1, and TPH2 was measured using high-performance liquid chromatography (HPLC) as previously described.[50],[56],[57]
TPH1 enzymatic activity assays were performed with the selected hits from the DSF screening in the presence and absence of 50 μM of each compound. The final concentration of DMSO was 0.5% (v/v), and control experiments used 0.5% DMSO in the absence of ligand. Assays were performed in a standard reaction mixture containing 40 mM Hepes pH 7.0, 200 mM NaCl, 0.1 mg/mL catalase, 0.5 mg/mL BSA, 10 μM ferrous ammonium sulfate, and 30 μM L-tryptophan (L-Trp). Compounds were incubated with TPH1 (0.02 mg/mL) in the reaction mixture for 10 min on ice. The enzymatic reaction was initiated by adding 200 μM BH4 and 2 mM DTT (final concentrations) and stopped by precipitation with 2% (v/v) acetic acid in ethanol after 3 min at 37 °C. The product, 5-hydroxy-tryptophan (5-OH-Trp), was quantified by HPLC utilizing a fluorescence monitor set at 302 and 350 nm for excitation and emission, respectively. […]. […]
PAH activities were performed in a standard reaction mixture containing 100 mM Hepes (pH 7.0), 0.04 mg/mL catalase, 0.05% BSA, 10 μM ferrous ammonium sulfate, and 1 mM phenylalanine (Phe). […] The product, L-Tyrosine (L-Tyr), was quantified by HPLC utilizing a fluorescence monitor set at 274 and 304 nm for excitation and emission, respectively. […]

human TH isoform 1 (TH1) = target: T2, human TH isoform 1 (TH1) (Homo sapiens, UniProt P07101); assay: TH enzyme activity assay (HPLC, L-DOPA); type: biochemical; settings: best-fit IC50 (± SE), nonlinear regression; N.A. = no activity
T2 construct: Full-length human TH isoform 1 (TH1); His6-ZZ fusion partner (one of the two preparations only) (cleaved yes); made in house; host or cells: E. coli BL21(DE3) pLysS (pET3a) or BL21 CodonPlus (pET-ZZ-1a)
T2 sequence (P07101 1-497 isoform P07101-3): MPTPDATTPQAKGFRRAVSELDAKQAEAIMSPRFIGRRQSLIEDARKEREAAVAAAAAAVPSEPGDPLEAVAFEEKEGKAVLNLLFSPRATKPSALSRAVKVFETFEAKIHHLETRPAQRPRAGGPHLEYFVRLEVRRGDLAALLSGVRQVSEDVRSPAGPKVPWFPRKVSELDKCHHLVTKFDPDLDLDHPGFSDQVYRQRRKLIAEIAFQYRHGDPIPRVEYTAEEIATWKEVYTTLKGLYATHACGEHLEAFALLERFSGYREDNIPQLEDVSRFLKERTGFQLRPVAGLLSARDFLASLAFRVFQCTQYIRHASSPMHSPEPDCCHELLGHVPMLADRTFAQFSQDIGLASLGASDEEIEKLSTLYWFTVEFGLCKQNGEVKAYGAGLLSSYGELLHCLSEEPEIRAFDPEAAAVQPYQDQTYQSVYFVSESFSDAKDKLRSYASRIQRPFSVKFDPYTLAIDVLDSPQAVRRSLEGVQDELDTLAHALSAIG
Description: as §1
TH activities were performed in a standard reaction mixture containing 40 mM Hepes (pH 7.0), 0.1 mg/mL catalase, 10 μM ferrous ammonium sulfate, and 50 μM L-Tyr. Compounds were incubated with TH (0.01 mg/mL) in the reaction mixture for 10 min on ice. The enzymatic reaction was initiated by adding 200 μM BH4 and 2 mM DTT (final concentrations) and stopped by precipitation with 2% (v/v) acetic acid in ethanol after 5 min at 37 °C. The product, L-DOPA, was quantified by HPLC utilizing a fluorescence monitor set at 281 and 314 nm for excitation and emission, respectively.
GraphPad Prism (version 10; La Jolla, CA) was used for analyzing the enzyme inhibition data.

endogenous PAH = target: T3, endogenous PAH (Homo sapiens, UniProt P00439); assay: Cellular thermal shift assay (CETSA) in HepG2 cells; type: cell-based; settings: 50 μM compound, 1 h, vs DMSO
T3 construct: increased melting temperatures (ΔTm) of endogenous PAH; endogenous in cells; host or cells: HepG2
T3 sequence (P00439 1-452): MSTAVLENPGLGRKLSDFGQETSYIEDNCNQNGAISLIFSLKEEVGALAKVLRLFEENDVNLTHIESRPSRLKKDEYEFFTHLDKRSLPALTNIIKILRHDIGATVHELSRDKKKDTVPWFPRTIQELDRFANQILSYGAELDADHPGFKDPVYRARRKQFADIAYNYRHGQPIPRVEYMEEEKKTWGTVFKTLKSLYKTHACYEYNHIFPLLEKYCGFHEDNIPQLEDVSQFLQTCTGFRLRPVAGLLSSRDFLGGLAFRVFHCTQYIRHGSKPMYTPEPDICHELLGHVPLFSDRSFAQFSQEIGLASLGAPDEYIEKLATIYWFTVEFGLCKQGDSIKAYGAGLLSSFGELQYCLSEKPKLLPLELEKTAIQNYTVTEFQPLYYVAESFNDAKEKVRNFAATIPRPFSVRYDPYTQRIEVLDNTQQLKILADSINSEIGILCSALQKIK
Description: Then, cells were washed, harvested using trypsin, and pelleted by centrifugation. The pellet was washed twice with PBS supplemented with complete EDTA-free protease inhibitor cocktail (Roche) and divided into 14 aliquots of 35 μL containing 800,000 cells. Cells were then frozen in liquid nitrogen and thawed at 25 °C three times, and each aliquot was heated to a defined temperature by applying a gradient between 39 °C and 69 °C in a thermocycler (peQSTAR, PeQlab; 16-well gradient, 54 °C ± 15 °C). After 3 min incubation, aliquots were snap frozen in liquid nitrogen and thawed at 25 °C. Cell lysates were centrifuged at 20,000 g (4 °C) for 20 min. Supernatants were mixed with 5x loading buffer, heated to 70 °C for 5 min and analyzed by Western blotting. Chemoluminescence signals were recorded with a FusionSL, Vilber Lourmat (peQlab) and quantified using FusionCapt Advance FX7 16.01c software. Calculation of ΔTm was conducted using the Boltzmann sigmoidal model in GraphPad prism 7.01.
Cell lysates used for Western blot analysis were prepared as described in the Methods section (Cellular Thermal Shift Assay). […] Chemoluminescence signals were recorded with an FusionSL, Vilber Lourmat (peQlab) and quantified using FusionCapt Advance FX7 16.01c software.

human TPH2 = target: T4, human TPH2 (Homo sapiens, UniProt Q8IWU9); assay: TPH2 enzyme activity assay (HPLC); type: biochemical; settings: best-fit IC50 (± SE), nonlinear regression; N.A. = no activity
T4 construct: Full-length human TH isoform 1 (TH1), human PAH, human TPH2, and doubly truncated human TPH1; MBP (cleaved yes); made in house; host or cells: E. coli BL21(DE3)
T4 sequence (Q8IWU9 1-490): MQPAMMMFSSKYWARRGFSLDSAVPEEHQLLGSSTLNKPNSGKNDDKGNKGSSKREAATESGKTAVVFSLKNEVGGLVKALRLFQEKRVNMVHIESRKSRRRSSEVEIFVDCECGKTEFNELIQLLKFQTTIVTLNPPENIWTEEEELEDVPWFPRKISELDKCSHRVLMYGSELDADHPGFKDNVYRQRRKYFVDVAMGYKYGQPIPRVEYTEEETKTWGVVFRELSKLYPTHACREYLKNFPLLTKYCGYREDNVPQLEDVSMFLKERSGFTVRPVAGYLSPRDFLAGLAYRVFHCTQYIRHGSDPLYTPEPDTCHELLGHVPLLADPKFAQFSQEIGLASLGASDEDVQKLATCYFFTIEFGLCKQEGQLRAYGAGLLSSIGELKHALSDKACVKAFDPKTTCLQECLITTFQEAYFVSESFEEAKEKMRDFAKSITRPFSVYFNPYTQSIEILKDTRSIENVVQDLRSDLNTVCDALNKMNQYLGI

human PAH = target: T5, human PAH (Homo sapiens, UniProt P00439); assay: PAH enzyme activity assay (HPLC, L-Tyr); type: biochemical
T5 construct: Full-length human TH isoform 1 (TH1), human PAH, human TPH2, and doubly truncated human TPH1; made in house; host or cells: E. coli TB1
T5 sequence (P00439 1-452): T3 sequence (P00439 1-452)

[2] = target: T6, doubly truncated human TPH1 (ΔNH102-ΔCOOH402) (Homo sapiens, UniProt P17752); assay: TPH1 enzyme activity assay (HPLC, 5-OH-Trp); type: biochemical; settings: best-fit IC50 (± SE), nonlinear regression; N.A. = no activity
T6 construct: doubly truncated human TPH1 (ΔNH102-ΔCOOH402); made in house; host or cells: E. coli BL21(DE3)
T6 sequence (P17752 102-402, stated change not applied): as the sequence (P17752 102-402) above

HDAC 6 = settings: human recombinant HDAC; ref 6 (10.1002/cmdc.201800238); cited from earlier work

Compound: CC(/C=C/C(=O)NO)=C\[C@@H](C)C(=O)c1ccc(N(C)C)cc1 [trichostatin A]
increase of dopamine transporter expression (dopamine transporter): 45 fold
increase of serotonin transporter expression (serotonin transporter): 15 fold

Compound: Nc1ccccc1NC(=O)c1ccc(CNc2nccc(-c3cccnc3)n2)cc1 [mocetinostat, reference compound]
IC50 (HDAC 1; ref 2 (PMID: 23829483)): 0.098 ± 0.055 µM
IC50 (HDAC 8; ref 2 (PMID: 23829483)): 35 ± 4.4 µM
Tm (°C) ± SD (°C), primary screen (TPH1; 0.075 mg/mL TPH1, 0.5% DMSO, three independent measurements (a: duplicates)): 54.5 ± 0.2 °C
ΔTm at 50 µM (TPH1; vs averaged Tm of 0.5% DMSO controls, read-out: ΔTm (°C) ± SD (°C), primary screen): -0.8 °C
inhibitory activity against all the AAAHs [1]: completely inactive

IC50 (μM) TH (human TH isoform 1 (TH1)): no inhibition
ΔTm of endogenous PAH (CETSA) (endogenous PAH): 4.8 °C
IC50 (human TPH2): 195 µM
IC50 (human PAH; best-fit IC50 (± SE), nonlinear regression, N.A. = no activity, read-out: IC50 (μM) PAH): 1.55 µM and 1.6 µM
selectivity toward PAH in comparison to TPH1 (human PAH; from IC50 values of Table 2): 30 fold
selectivity toward PAH in comparison to TPH2 (human PAH; from IC50 values of Table 2): 125 fold
ΔTm (°C) ± SD (°C), primary screen (TPH1; vs averaged Tm of 0.5% DMSO controls): -3.4 ± 0.1 °C
IC50 [2]: 49.6 µM
Compound: O=C(/C=C/c1ccccc1Oc1ccc(Cl)cc1)NO [TB57, (2E)-3-[2-(4-Chlorophenoxy)phenyl]-N-hydroxy-2-propenamide]
IC50 (HDAC 1; ref 6 (10.1002/cmdc.201800238)): 13.4 ± 2.4 µM
IC50 (HDAC 8; ref 6 (10.1002/cmdc.201800238)): 0.15 ± 0.03 µM
IC50 (HDAC 6): 11.4 ± 2.5 µM
